Test results published in PMC6381124, “Aplysinopsin-type and Bromotyrosine-derived Alkaloids from the South China Sea Sponge Fascaplysinopsis reticulata” (Scientific Reports, 2019).

Columns and labels:
[1] = test system: human cervical cancer (HeLa) cell lines; test: Cytotoxicity assay (MTT method) against HeLa cell lines; type: cell-based; settings: HeLa cells
Protocol: (§1) The cytotoxicity assay of the isolated compounds were evaluated against human lung carcinoma (A549), human cervical cancer (HeLa), human leukemia (K562), and human T-cell leukemia (Jurkat) cell lines using the MTT method with Doxorubicin as the positive control.

[2] = Cytotoxicity assay (MTT method) against Jurkat cell lines; type: cell-based; settings: human, Jurkat cells (human T-cell leukemia), Doxorubicin as positive control
Protocol: as §1

With `CN1C(=O)N(C)C(O)(CC2(O)C(=O)Nc3ccccc32)C1=O` (single isomer, unassigned; (+)) [(+)-3, (+)-oxoaplysinopsin C] the IC50 [1] was 27 µM.

`CN1C(=O)N(C)C(O)(CC2(O)C(=O)Nc3ccccc32)C1=O` (single isomer, unassigned; (-)) [(−)-3, (−)-oxoaplysinopsin C] showed an IC50 [1] of 61.6 µM.

In the case of `COC(=O)NCCCCCNC(=O)C1=NO[C@]2(C=C(Br)C(OC)=C(Br)[C@@H]2O)C1` [Compound 19, Subereamolline D], the IC50 [2] is reported as 880 nM.
